This is an account of results in patent EP2319515A1, “COCCIDICIDE COMBINATION FOR VETERINARY USE” (Laboratorio Avi-Mex, S.A. De C.V., priority 2008, dated 2010).

The test relates to Eimeria tenella sporocytes. The experiment in a line: in vitro comparative trials for effectiveness: chicken fibroblasts infected with E. tenella sporocytes. The test is classed as cell-based. As to conditions: 24 hours of incubation; for cells quantified in 9 fields, X (±SD): CS-3 chicken fibroblasts + E. tenella sporocytes (about 3 per cell), microscope 40 X; for cells quantified in 9 fields, Means mean (±SD): mean of replications A to C, CS-3 chicken fibroblasts + E. tenella sporocytes.

Take `Cc1cc(-n2c(=O)[nH]c(=O)n(C)c2=O)ccc1Oc1ccc(SC(F)(F)F)cc1` [Example 2]: the “cells quantified in 9 fields, Means mean (±SD)” value is reported as 895 (105). For the setting “Replication A”, the “cells quantified in 9 fields, X (±SD)” value is recorded as 999 (12). Moreover, the “cells quantified in 9 fields, X (±SD)” value (Replication B) is 899 (8). Also, where the note is “Replication C”, the “cells quantified in 9 fields, X (±SD)” value was 789 (6).

Take `CO[C@@H]1[C@@H](OC)[C@H](C)[C@@](O)(CC(=O)O)O[C@H]1[C@H](C)[C@H]1O[C@@]2(CC[C@@](C)([C@H]3CC[C@@](C)([C@@H]4O[C@@H]([C@H]5O[C@](C)(O)[C@H](C)C[C@@H]5C)C[C@@H]4O[C@@H]4C[C@H](OC)[C@@H](OC)[C@H](C)O4)O3)O2)C[C@H](O)[C@H]1C` [Example 1, Maduramicine]: the “cells quantified in 9 fields, Means mean (±SD)” value is reported as 221 (58). The “cells quantified in 9 fields, X (±SD)” value (Replication A) was 268 (29). Moreover, where the note is “Replication B”, the “cells quantified in 9 fields, X (±SD)” value was 156 (35). The “cells quantified in 9 fields, X (±SD)” value (Replication C) is reported as 239 (21).
